pIC50: −log10 of the molar value. Values belong to the molecule of their own block, whether it stands above or below them.
What was measured:
nuclear DNA [1] = assay: Platinum adducts (covalent nuclear DNA-binding) by ICP-MS in TNBC xenograft tumor sections; assay type: in vivo, beige SCID mice
Protocol: Thirty-nine mice were euthanized approximately 3 h after the last dose of veliparib and 24 h after the last dose of carboplatin; two mice used in the DCE-MRI pilot were euthanized 1.5 h after single-dose administration of veliparib and carboplatin (Fig. 1). Bilateral xenograft tumors and liver and muscle (quadriceps) tissues were harvested. Tissues were cut into three pieces and either embedded in optimum cutting temperature (OCT) formulation or were directly snap frozen in liquid-nitrogen-cooled isopentane and stored at − 80 °C until analysis. […] A separate fresh-frozen portion of each tissue per animal was ground for quantification of veliparib and carboplatin by LC-MS. Method development and details of the techniques are described in Additional file 1a-c. […]
b). Technical aspects of the ICP-MS method development. […]
(§1) DNA extraction procedure:
(§2) The DNA extraction was based on previous publications. 4 In short, 44 μL 1 mol L −1 NH4HCO3, 20 μL 20% (w/v) SDS, and 6 μL 1% (w/v) proteinase K solution were added successively, and incubated for 24hours using a thermomixer. After the digestion was complete, 146 μL saturated 6 mol L−1 NaCl was added to each tube and the tubes were shaken vigorously to precipitate proteins. The tubes were centrifuged for 10min at 2000 g and the supernatant containing the DNA was transferred to another tube. Subsequently, the supernatant was shaken, centrifuged, and transferred to another tube. Following this, 1.5ml absolute ethanol was added to precipitate the DNA and centrifuged from 30 minutes at 21 Kg at 4°C. The DNA was washed twice with 75% ethanol and was subsequently dissolved in 30 μL water. DNA concentrations were analyzed by measuring the absorbance at 260 nm using Nanodrop 1000 spectophotometer (NanoDrop).
(§3) Carboplatin adduct quantification:
(§4) The quantity of the carboplatin-adducts per mg DNA was quantified (Figure S8) using a previously validated […]
(§5) Figure S8: Example graph of mass spectrum of platinum in DNA extraction by ICP-MS.

nuclear DNA [2] = assay: Platinum adducts by ICP-MS in PBMCs from patients (carboplatin + talazoparib phase 1); assay type: in vivo
Protocol: Carboplatin and platinum adducts were determined in a limited number of blood samples from a previously presented phase 1 clinical trial (NCT02358200). […] In the case of grade 3 or grade 4 toxicity, carboplatin and/or talazoparib doses were held until below grade 1 and resumed at a lower dose level. Blood samples were obtained from a limited number of patients during cycle 1 day 1 (prior to talazoparib dosing) and cycle 2 day 1 pre-dose and up to 24 h post dose, and PBMCs were derived at day 15 post dose, DNA was extracted as described in Additional file 1d and platinum adducts were quantified by ICP-MS (Additional file 1b).
The platinum adduct formation in PBMCs in 19 patients was linked to carboplatin concentrations in plasma using the Eq 1. […] In this model, we tested the hypothesis that PARPi interact with platinum formation. […] The formation of adducts correlated with the number of lymphocytes (P < 0.0001) and the gBRCA mutation status (P < 0.0001). […]
b). Technical aspects of the ICP-MS method development.
PBMCs were extracted from whole blood using by centrifugation. Lysis of red blood cells was performed as needed, then PMBCs were washed and resuspended in A limited number of 5-15 mL heparinised or EDTA whole blood samples from the PK study talazoparib/carboplatin phase 1 study were included. Following centrifugation for 15 min at 1,000 g, plasma was extracted and the PBS was added to a total volume of 9.5 ml to the remaing fraction. PMBCS were extracted using density-gradient centrifugation with Ficoll-Paque Plus® (Pharmacia, Uppsala, Sweden) at room temperature for 20 min at 400 g. PBMCs were washed twice with ice-cold PBS and centrifuged at 800 G for 5 minustes at 4 °C. Cells were counted and ther resuspended in 1 mL buffer containing 10 mmol L−1 Tris- HCl, 2.3% (w/v) NaCl, and 2 mmol L−1 EDTA disodium salt at pH 7.3.
as §1, §2, §3, §4, §5
(1 picture or pasted object on this page, not shown here)
Supplementary Table 2: PK patients estimates carboplatin and platinum adducts Structural model PK Estimat RS
Inter-individual variability on Platinum adduct formation (RPT) 317% proportional residual error plasma carboplatin 28% 26 […]
proportional residual error adduct formation 110% 6%
Platinum adduct formation:
CL=clearance, V=volume of distribution, KA= rate of absorption, RPT= ratio of carboplatin adduct formation, KPT= rate of carboplatin adduct formation, gBRCA = germline BRCA carrier […]
(also on this page, place not known: ( )adductsC−×× plasmaCRPT KPT=dt dCadducts)

[3] = Carboplatin one-compartment plasma PK model in mice; assay type: in vivo, beige SCID mice
Protocol: The PK of carboplatin in mice was assessed using a one-compartment model with bolus intravenous injection.
e) Supplements of the PK-model development.

[4] = design: method as in PMID 19526240; details: ref [32]; cited from earlier work
[5] = Veliparib plasma and tumor PK model (NONMEM) in xenograft mice; details: for Kp: beige SCID (Fox Chase)
Protocol: PK-analyses were performed using nonlinear mixed-effects modeling (NONMEM VII Software, ICON Development Solutions, San Antonio, TX, USA), using the first-order conditional estimation with interaction (FOCEI) method. The model-building procedure was guided by the likelihood ratio test, diagnostic plots and internal model validation techniques, including visual predictive checks and bootstrap analysis. The effect of dose, concentration and cell source on TNBC xenograft tissue concentrations was assessed. The variability between animals was assessed using two components: one consistent difference common to all TNBC xenograft tissue samples from left and right mouse tumor and one mouse-specific difference (RRES) to understand the inter-individual and intra-individual variability.
Intra-animal error tumor 28% 21% 19%
proportional residual error plasma 13% 42% 8%
proportional residual error tumor 23% 19% 7%
proportional residual error plasma 41% 22% 9%

TNBC = system: TNBC; design: method as in ref [4] = [4]; 4. Rugo HS, et al. Veliparib/carboplatin plus standard neoadjuvant therapy for high-risk breast cancer: first efficacy results from the I-SPY 2 TRIAL [abstract]. Cancer Res. 2013;73:Abstract nr S5_02.; details: veliparib 50 mg BID combined with carboplatin, neoadjuvant; ref [4]; cited from earlier work
PARP = details: read-out: PARP trapping IC50; cited from earlier work
HCC70 = details: ref [23]; cited from earlier work

Compound: N.N.O=C([O-])C1(C(=O)[O-])CCC1.[Pt+2] [carboplatin]
Median conc. (RSE %), carboplatin adducts (nuclear DNA [1]; HCC70 xenografts): 1.85 μmol/g DNA
Median conc. (RSE %), carboplatin adducts (nuclear DNA [1]; HCC70 xenografts, listed as Carboplatin): 1.85 (42%) μmol/g DNA
Median conc. (RSE %), carboplatin adducts (nuclear DNA [1]; MDA-MB-231 xenografts): 0.55 μmol/g DNA
Median conc. (RSE %), carboplatin adducts (nuclear DNA [1]; MDA-MB-231 xenografts, listed as Carboplatin): 0.55 (23%) μmol/g DNA
Median conc. (RSE %), carboplatin adducts (nuclear DNA [1]; MDA-MB-436 xenografts): 0.54 μmol/g DNA
Median conc. (RSE %), carboplatin adducts (nuclear DNA [1]; MDA-MB-436 xenografts, listed as Carboplatin): 0.54 (27%) μmol/g DNA
Median conc. (RSE %), carboplatin adducts (nuclear DNA [1]; all TNBC xenograft tissue, 24 h after two carboplatin administrations, ICP-MS): 0.55 (30%) μmol/g DNA
Median conc. (RSE %), carboplatin adducts (nuclear DNA [1]; carboplatin combined with placebo): 0.476 (57) μmol/g DNA
Median conc. (RSE %), carboplatin adducts (nuclear DNA [1]; carboplatin combined with veliparib 60mg/kg for 3 days): 0.977 (33) μmol/g DNA
Median platinum adducts (nuclear DNA [1]; xenograft tumor sections): 546.3 nmol/g DNA
RPT, ratio of adducts compared to plasma concentration (nuclear DNA [2]; 19 patients): 0.5%
Median conc. (RSE %), carboplatin adducts (nuclear DNA [2]; PBMCs from patients, ICP-MS): 0.0552 (30%) μmol/g DNA
Ratio of adducts in PBMCs/plasma concentration (nuclear DNA [2]; five gBRCA carriers): 0.64%
Ratio of adducts in PBMCs/plasma concentration (nuclear DNA [2]; nine non-carriers): 0.29%
RPT (%) carboplatin adducts, model estimate (nuclear DNA [2]; non-carriers, Supplementary Table 2): 1.20%
Median platinum adducts (nuclear DNA [2]; patient PBMC samples): 55.2 nmol/g DNA
Time platinum adducts remain detectable post dose (nuclear DNA [2]; patient PBMC samples): up to 15 days
Median platinum adducts, equivalent per blood volume (nuclear DNA [2]; patient PBMC samples, per L blood): 81.4 pg/L
Inter-individual variability on platinum adduct formation (RPT) (nuclear DNA [2]; patients): 317%
Adduct formation, single-agent treatment at day 1 versus combination with talazoparib (nuclear DNA [2]; patients PBMCs): no statistical difference
KPT, formation rate of adducts from plasma (nuclear DNA [2]; patients PBMCs): 0.0156 L/h
Clearance and volume of distribution of carboplatin with co-dosed veliparib (drug-drug interaction) ([3]; 0, 20 or 60 mg/kg veliparib doses): not significantly different
Half-life (t1/2) ([3]; beige SCID mice plasma): 21 min
CL ([3]; mice plasma): 34.2 mL/h
Interindividual variability on CL ([3]; mice plasma): 6%
Vd ([3]; mice plasma): 17.5 mL

Kp ([5]; mouse, tumor (MDA-MB-231 xenograft), oral, Penetration from plasma to xenograft tumor (ratio, RPT), MDA-MB-231 xenografts): 0.36
Kp ([5]; mouse, tumor (MDA-MB-436 xenograft), oral, Penetration from plasma to xenograft tumor (ratio, RPT), MDA-MB-436 xenografts): 0.46
Kp ([5]; mouse, tumor (TNBC xenografts), oral, Veliparib transferred from plasma to TNBC xenografts, across the three xenograft types): 0.35 to 0.74
Km ([5]; beige SCID, mouse, plasma, oral): 26.2 µg/mL
Interindividual variability on F plasma ([5]; mouse PK model): 13%
Interindividual variability on tumor penetration (between tumors in different animals) ([5]; mouse PK model): 37%
Intra-animal variability tumor (within the tumor sections of an animal) ([5]; mouse PK model): 28%
Q tumor ([5]; mouse PK model): 0.0694 mL/h
V ([5]; mouse plasma PK model): 10.1 mL
V2 ([5]; mouse plasma PK model): 0.0168 mL
Vmax ([5]; mouse plasma PK model): 1.86 mL/h
KA ([5]; mouse plasma PK model, oral gavage): 2.11 h⁻¹
KPT, rate of transfer from plasma to tumor ([5]; mouse tumor PK model): 900 mL/h
Compound: C[C@]1(c2nc3c(C(N)=O)cccc3[nH]2)CCCN1 [veliparib]
Protein binding capacity in human plasma [4]: 51%
Kp ([5]; mouse, tumor (HCC70 xenograft), oral, Penetration from plasma to xenograft tumor (ratio, RPT), HCC70 xenografts): 0.75
TN patients without pathologic complete response (pCR) (TNBC): approximately 42%
pIC50 (PARP): 4.24
Sensitivity in vitro (HCC70): insensitive

From paper PMC5594551, “Heterogeneous drug penetrance of veliparib and carboplatin measured in triple negative breast tumors” (Breast Cancer Research : BCR, 2017)
